Assays:
Experiment in all cases: relative viability (nuclei count vs DMSO), 5 days (fraction); higher = more cells survive
Bemcentinib + Pemetrexed = compound: Nc1nc(Nc2ccc3c(c2)CC[C@@H](N2CCCC2)CC3)nn1-c1cc2c(nn1)-c1ccccc1CCC2 [Bemcentinib] + Nc1nc2[nH]cc(CCc3ccc(C(=O)N[C@@H](CCC(=O)O)C(=O)O)cc3)c2c(=O)[nH]1 [Pemetrexed] (partner 0.2 µM)
Procedure, shortened: (§1)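 Relative viability was taken as the ratio of nuclei in treated wells to nuclei in vehicle wells. Lung cancer cell lines in 1536-well plates received compounds by pin tool one day after seeding, either one drug alone or a fixed anchor-drug dose plus five library-drug doses (not always all listed) in √10 steps. Nuclei were counted on 4× images after 5 days of treatment, and values are medians of duplicate plates.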

Axitinib + Pictilisib = compound: CNC(=O)c1ccccc1Sc1ccc2c(/C=C/c3ccccn3)n[nH]c2c1 [Axitinib] + CS(=O)(=O)N1CCN(Cc2cc3nc(-c4cccc5[nH]ncc45)nc(N4CCOCC4)c3s2)CC1 [Pictilisib] (partner 1 µM)
Procedure, shortened: as §1

[1] = compound: Nc1nc(Nc2ccc3c(c2)CC[C@@H](N2CCCC2)CC3)nn1-c1cc2c(nn1)-c1ccccc1CCC2 [Bemcentinib] + CC(=O)c1c(C)c2cnc(Nc3ccc(N4CCNCC4)cn3)nc2n(C2CCCC2)c1=O [Palbociclib] (partner 0.5 µM)
Procedure, shortened: as §1

Axitinib + Linsitinib = compound: CNC(=O)c1ccccc1Sc1ccc2c(/C=C/c3ccccn3)n[nH]c2c1 [Axitinib] + C[C@]1(O)C[C@@H](c2nc(-c3ccc4ccc(-c5ccccc5)nc4c3)c3c(N)nccn32)C1 [Linsitinib] (partner 1 µM)
Procedure, shortened: as §1

| Cell Line | relative viability (Bemcentinib + Pemetrexed; first compound 0.04 µM) | relative viability (Bemcentinib + Pemetrexed; first compound 0.1265 µM) | relative viability (Bemcentinib + Pemetrexed; first compound 0.4 µM) | relative viability (Bemcentinib + Pemetrexed; first compound 1.265 µM) | relative viability (Bemcentinib + Pemetrexed; first compound 4 µM) | relative viability (Axitinib + Pictilisib; first compound 0.005 µM) | relative viability (Axitinib + Pictilisib; first compound 0.01581 µM) | relative viability (Axitinib + Pictilisib; first compound 0.05 µM) | relative viability (Axitinib + Pictilisib; first compound 0.1581 µM) | relative viability (Axitinib + Pictilisib; first compound 0.5 µM) | relative viability ([1]; first compound 0.04 µM) | relative viability ([1]; first compound 0.1265 µM) | relative viability ([1]; first compound 0.4 µM) | relative viability ([1]; first compound 1.265 µM) | relative viability ([1]; first compound 4 µM) | relative viability (Axitinib + Linsitinib; first compound 0.005 µM) | relative viability (Axitinib + Linsitinib; first compound 0.01581 µM) | relative viability (Axitinib + Linsitinib; first compound 0.05 µM) | relative viability (Axitinib + Linsitinib; first compound 0.1581 µM) | relative viability (Axitinib + Linsitinib; first compound 0.5 µM) |
| --- | --- | --- | --- | --- | --- | --- | --- | --- | --- | --- | --- | --- | --- | --- | --- | --- | --- | --- | --- | --- |
| HCC-78 | 0.923 | 1.01 | 0.942 | 0.895 | 0.95 | 0.207 | 0.257 | 0.238 | 0.229 | 0.218 | 0.461 | 0.455 | 0.438 | 0.409 | 0.48 | 0.602 | 0.414 | 0.52 | 0.526 | 0.479 |
| NCI-H322M | 0.625 | 0.633 | 0.659 | 0.704 | 0.618 | 0.571 | 0.496 | 0.474 | 0.472 | 0.505 | 0.49 | 0.481 | 0.483 | 0.537 | 0.557 | 0.932 | 0.897 | 0.892 | 0.889 | 0.827 |
| NCI-H1651 | 0.548 | 0.592 | 0.646 | 0.475 | 0.614 | 0.631 | 0.503 | 0.665 | 0.576 | 0.567 | 0.528 | 0.542 | 0.528 | 0.576 | 0.512 | 1.08 | 0.895 | 0.914 | 0.964 | 1.23 |
| NCI-H1437 | 0.305 | 0.323 | 0.322 | 0.362 | 0.331 | 0.437 | 0.399 | 0.459 | 0.418 | 0.402 | 0.322 | 0.373 | 0.298 | 0.226 | 0.324 | 1.02 | 1.07 | 1 | 0.898 | 0.797 |
| NCI-H1355 | 1.06 | 1.16 | 1.13 | 1.03 | 1.04 | 0.41 | 0.514 | 0.606 | 0.432 | 0.308 | 0.396 | 0.403 | 0.419 | 0.415 | 0.437 | 0.834 | 0.811 | 0.845 | 0.865 | 0.819 |
| NCI-H1755 | 0.418 | 0.498 | 0.565 | 0.569 | 0.455 | 0.482 | 0.418 | 0.55 | 0.4 | 0.454 | 0.43 | 0.462 | 0.425 | 0.479 | 0.439 | 1.04 | 0.963 | 0.99 | 1.02 | 1.03 |
| SK-LU-1 | 1.02 | 1.04 | 1.08 | 1.08 | 0.984 | 0.553 | 0.569 | 0.558 | 0.567 | 0.659 | 0.338 | 0.446 | 0.393 | 0.487 | 0.37 | 1.25 | 1.28 | 1.18 | 1.17 | 1.36 |
| NCI-H2126 | 0.732 | 0.671 | 0.713 | 0.646 | 0.831 | 0.457 | 0.475 | 0.504 | 0.522 | 0.499 | 0.342 | 0.334 | 0.364 | 0.385 | 0.357 | 0.696 | 0.724 | 0.728 | 0.667 | 0.676 |

From the supplement of paper PMC10307832
